Each block holds one compound with its values, some of them ahead of it.
Legend:
[1] = tested on: HepG2 cells (N-RAS mutant hepatoma carcinoma cell); assay: Inhibition on cell growth of N-RAS mutant cell HepG2 (SRB); type: cell-based; details: Homo sapiens, 72 hours, SRB staining, described as GI50 in the method
Procedure: N-RAS mutant cells HepG2 cells (HCC) cell lines (ATCC # HB-8065™), were obtained from ATCC (American Type Culture Collection: Rockville, Md.). HepG2 cell lines were incubated in a MEM medium supplemented with 10% FBS and 1% penicillin/streptomycin (Gibco BRL) under 37° C., 5% CO2 and 95% air. The cell lines were transferred into 96-well plates at a density of 5,000 cells/well, and cultured for 18 hours or more. The cell lines were treated with […]˜0.1 nM of test compounds, and cultured for 72 hours.
(§1) To evaluate cell viabilities, HepG2 cell lines were fixed with 10% TCA (trichloroacetic acid), stained with SRB (sulfohodamine B), and an absorbance was measured at 540 nm. Then, GI50, i.e., the concentration of drug to cause 50% reduction in proliferation of cancer cells, were calculated therefrom. The growth rates of cancer cells were calculated by Equation 1 or 2. [(Ti−Tz)/(C−Tz)]×100 (for Ti>=Tz) [Equation 1] [(Ti−Tz/Tz)×100 (for Ti<Tz) [Equation 2]
(§2) In Equations 1 and 2, ‘Tz’ refers to a density of untreated cells, which is an absorbance in 0% cell growth groups. ‘C’ refers to a density of cells cultured by adding only medium, and ‘Ti’ refers to a density of cells treated with test compounds.
GI50 value is the concentration of test compound when the value of Equation 1 is 50, which indicates the concentration of test compound needed to reduce the growth of cancer cells to 50%. On each measurement, test compounds were compared with a control.

DDR2 = DDR2 (Homo sapiens (Human), UniProt Q16832); assay: DDR2 kinase activity, Kinase Screening and Profiling Service (Invitrogen); type: biochemical
Procedure: (§3) As such, the compounds prepared in Examples were tested for inhibitory activity against FMS, DDR1 and DDR2 kinases using Kinase Screening and Profiling Service (Invitrogen, U.S.).

DDR1 = DDR1 (Homo sapiens (Human), UniProt Q08345); assay: DDR1 kinase activity, Kinase Screening and Profiling Service (Invitrogen); type: biochemical
Procedure: as §3

FMS = FMS (Homo sapiens (Human), UniProt P07333); assay: FMS kinase activity, Kinase Screening and Profiling Service (Invitrogen); type: biochemical
Procedure: as §3

[2] = tested on: SK-Mel-2 cells (N-RAS mutant melanoma); assay: Inhibition on cell growth of N-RAS mutant cell SK-Mel-2 (SRB); type: cell-based; details: Homo sapiens, 72 hours, SRB staining, described as GI50 in the method
Procedure: N-RAS mutant cells, SK-Mel-2 cell lines (ATCC #HTB-68™), were obtained from ATCC (American Type Culture Collection: Rockville, Md.). SK-Mel-2 cell lines were incubated in a MEM medium supplemented with 10% FBS and 1% penicillin/streptomycin (Gibco BRL) under 37° C., 5% CO2 and 95% air. The cell lines were transferred into 96-well plates at a density of 5,000 cells/well, and cultured for 18 hours or more. The cells were treated with […]˜0.1 nM of test compounds, and cultured for 72 hours.
as §1, with “SK-Mel-2” for “HepG2”
as §2
GI50 value is the concentration of a test compound when the value of Equation 1 is 50, which indicates the concentration of test compound needed to reduce the growth of cancer cells to 50%. On each measurement, test compounds were compared with a control.

B-RAF normal type = B-RAF normal type (Homo sapiens (Human), UniProt P15056); assay: RAF kinase activity, Kinase Profiling Service (Invitrogen); type: biochemical
Procedure: (§4) The levels of enzymatic inhibition of the compounds were calculated as percent inhibition at various concentrations. Based on percent inhibition, dose-response curves were plotted using GraphPad Prism software.

B-RAF^V600E = B-RAF^V600E (Homo sapiens (Human), UniProt P15056, V600E); assay: as above; type: biochemical; details: B-RAF V600E mutant; read-out: B-RAFv^600E (IC50)
Procedure: as §4

RAF1 Y340D Y341D (C-RAF) = RAF1 Y340D Y341D (C-RAF) (Homo sapiens (Human), UniProt P04049, Y340D/Y341D); assay: as above; type: biochemical
Procedure: as §4

DDR2, sequence (Q16832 22-855): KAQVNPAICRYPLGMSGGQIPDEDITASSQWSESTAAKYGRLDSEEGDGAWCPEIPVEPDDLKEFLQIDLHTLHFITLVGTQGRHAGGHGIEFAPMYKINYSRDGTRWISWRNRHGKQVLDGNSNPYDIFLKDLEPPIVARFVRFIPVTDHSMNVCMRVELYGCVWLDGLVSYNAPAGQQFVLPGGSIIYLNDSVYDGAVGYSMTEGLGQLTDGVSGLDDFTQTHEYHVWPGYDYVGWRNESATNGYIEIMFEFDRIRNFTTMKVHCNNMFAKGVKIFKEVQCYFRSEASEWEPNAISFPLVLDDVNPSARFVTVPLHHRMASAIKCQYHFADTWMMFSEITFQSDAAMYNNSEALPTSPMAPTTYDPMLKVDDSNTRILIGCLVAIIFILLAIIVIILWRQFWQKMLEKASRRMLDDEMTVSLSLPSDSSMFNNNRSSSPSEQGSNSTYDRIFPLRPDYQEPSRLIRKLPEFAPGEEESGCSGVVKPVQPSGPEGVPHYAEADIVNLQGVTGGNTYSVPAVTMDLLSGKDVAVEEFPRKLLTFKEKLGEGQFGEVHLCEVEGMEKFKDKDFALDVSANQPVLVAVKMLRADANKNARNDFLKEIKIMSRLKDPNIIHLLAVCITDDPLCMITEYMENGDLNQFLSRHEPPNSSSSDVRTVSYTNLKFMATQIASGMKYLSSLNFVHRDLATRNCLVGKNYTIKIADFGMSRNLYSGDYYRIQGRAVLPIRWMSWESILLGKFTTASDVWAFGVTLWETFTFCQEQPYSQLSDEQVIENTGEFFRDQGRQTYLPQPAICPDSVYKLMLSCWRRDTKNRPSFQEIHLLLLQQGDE
DDR1, sequence (Q08345 19-913): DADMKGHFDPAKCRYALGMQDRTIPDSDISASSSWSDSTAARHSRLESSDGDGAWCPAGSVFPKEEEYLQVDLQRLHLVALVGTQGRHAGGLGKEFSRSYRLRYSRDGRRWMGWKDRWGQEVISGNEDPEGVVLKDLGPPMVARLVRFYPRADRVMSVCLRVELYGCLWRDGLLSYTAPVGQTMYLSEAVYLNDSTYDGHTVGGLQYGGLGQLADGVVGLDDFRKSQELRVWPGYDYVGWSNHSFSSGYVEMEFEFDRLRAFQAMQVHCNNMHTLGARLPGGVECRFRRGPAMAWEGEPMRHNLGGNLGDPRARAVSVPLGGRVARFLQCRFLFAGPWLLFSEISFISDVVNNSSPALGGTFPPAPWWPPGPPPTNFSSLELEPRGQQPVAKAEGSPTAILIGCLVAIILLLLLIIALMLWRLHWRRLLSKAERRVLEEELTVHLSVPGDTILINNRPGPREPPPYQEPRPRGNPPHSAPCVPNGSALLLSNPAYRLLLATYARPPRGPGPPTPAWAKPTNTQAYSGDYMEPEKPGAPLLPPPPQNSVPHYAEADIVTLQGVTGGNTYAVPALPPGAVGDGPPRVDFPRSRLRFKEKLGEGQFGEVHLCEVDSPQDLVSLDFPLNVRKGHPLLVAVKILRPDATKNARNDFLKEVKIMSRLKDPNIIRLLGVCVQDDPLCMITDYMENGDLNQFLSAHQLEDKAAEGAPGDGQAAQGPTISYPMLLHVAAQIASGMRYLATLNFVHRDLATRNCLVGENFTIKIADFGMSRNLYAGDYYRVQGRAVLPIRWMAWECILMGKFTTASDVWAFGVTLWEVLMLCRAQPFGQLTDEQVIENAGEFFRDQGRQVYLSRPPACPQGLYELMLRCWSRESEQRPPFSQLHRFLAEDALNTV
B-RAF normal type, sequence (P15056 whole entry): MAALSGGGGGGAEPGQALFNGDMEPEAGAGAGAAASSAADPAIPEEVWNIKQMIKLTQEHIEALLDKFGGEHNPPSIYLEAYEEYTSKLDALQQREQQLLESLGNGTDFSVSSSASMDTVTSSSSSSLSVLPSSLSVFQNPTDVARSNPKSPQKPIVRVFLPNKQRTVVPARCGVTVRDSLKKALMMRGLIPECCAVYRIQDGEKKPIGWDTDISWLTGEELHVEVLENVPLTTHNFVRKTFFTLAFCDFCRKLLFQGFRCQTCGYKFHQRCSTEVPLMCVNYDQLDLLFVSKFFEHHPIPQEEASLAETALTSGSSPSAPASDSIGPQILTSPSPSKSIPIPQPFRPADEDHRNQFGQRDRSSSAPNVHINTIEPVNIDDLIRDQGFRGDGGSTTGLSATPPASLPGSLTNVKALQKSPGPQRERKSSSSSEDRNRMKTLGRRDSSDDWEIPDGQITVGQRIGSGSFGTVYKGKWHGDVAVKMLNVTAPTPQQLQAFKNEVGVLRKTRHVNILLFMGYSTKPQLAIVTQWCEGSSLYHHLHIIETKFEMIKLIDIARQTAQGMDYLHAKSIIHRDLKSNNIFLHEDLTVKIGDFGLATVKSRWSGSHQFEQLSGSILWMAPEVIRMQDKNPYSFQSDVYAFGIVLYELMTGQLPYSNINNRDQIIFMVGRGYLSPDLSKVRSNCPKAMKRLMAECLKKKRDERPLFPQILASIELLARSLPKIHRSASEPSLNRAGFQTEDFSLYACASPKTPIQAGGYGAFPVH
RAF1 Y340D Y341D (C-RAF), sequence (P04049 whole entry Y340D/Y341D): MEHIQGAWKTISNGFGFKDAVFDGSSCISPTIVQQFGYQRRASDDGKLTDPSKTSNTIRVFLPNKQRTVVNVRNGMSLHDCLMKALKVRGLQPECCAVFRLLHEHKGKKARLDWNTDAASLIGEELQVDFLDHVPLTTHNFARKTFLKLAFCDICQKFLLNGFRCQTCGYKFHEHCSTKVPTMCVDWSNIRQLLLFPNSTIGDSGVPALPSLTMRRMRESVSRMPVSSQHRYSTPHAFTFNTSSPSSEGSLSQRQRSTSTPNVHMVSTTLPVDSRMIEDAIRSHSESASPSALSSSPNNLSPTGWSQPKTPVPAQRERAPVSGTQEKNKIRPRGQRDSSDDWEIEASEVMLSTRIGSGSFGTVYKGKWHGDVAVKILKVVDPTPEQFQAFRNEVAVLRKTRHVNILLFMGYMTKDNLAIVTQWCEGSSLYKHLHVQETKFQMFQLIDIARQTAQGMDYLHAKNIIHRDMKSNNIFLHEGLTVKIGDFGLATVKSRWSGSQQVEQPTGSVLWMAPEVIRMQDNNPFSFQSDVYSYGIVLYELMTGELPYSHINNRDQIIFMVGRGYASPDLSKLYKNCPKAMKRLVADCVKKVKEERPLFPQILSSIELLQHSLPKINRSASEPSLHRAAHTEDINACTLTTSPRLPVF
FMS, sequence (P07333 20-972): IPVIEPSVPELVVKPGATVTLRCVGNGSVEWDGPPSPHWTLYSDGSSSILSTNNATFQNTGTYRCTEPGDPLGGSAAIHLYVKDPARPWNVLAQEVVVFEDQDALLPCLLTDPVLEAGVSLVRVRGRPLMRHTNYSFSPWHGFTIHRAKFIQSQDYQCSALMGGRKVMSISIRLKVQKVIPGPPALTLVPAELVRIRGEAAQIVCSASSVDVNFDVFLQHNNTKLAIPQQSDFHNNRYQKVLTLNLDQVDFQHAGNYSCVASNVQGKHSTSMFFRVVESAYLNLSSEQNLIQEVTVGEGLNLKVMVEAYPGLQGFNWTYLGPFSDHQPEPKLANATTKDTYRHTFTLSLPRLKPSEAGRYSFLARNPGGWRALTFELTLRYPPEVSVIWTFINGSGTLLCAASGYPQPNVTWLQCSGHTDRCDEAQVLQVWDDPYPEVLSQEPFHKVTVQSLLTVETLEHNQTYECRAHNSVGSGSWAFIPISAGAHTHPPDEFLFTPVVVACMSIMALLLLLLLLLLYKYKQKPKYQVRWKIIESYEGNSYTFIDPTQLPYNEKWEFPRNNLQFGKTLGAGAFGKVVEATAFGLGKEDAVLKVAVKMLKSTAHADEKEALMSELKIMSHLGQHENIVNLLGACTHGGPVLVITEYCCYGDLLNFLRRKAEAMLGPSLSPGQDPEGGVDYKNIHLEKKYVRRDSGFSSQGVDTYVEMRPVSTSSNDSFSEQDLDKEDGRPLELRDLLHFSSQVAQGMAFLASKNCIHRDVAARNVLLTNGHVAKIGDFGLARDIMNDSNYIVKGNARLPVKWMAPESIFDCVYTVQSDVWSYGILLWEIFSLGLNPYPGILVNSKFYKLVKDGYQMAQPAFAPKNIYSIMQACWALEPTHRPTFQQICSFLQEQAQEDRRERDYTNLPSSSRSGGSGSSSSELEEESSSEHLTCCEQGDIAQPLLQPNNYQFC
B-RAF^V600E, sequence (P15056 whole entry V600E): as the sequence (P15056 whole entry) above, with V600E counted along it

IC50 [1]: 0.027 µM
IC50 (DDR2): 0.005 µM
IC50 (DDR1): 0.002 µM
IC50 (FMS): 0.001 µM
IC50 (B-RAF normal type): 0.121 µM
IC50 (B-RAF^V600E): 0.022 µM
IC50 (RAF1 Y340D Y341D (C-RAF)): 0.023 µM
IC50 [2]: 0.056 µM
Compound: Cc1ccc2c(Nc3ccc(Cl)cc3)nccc2c1NC(=O)c1csc2c(N)ncnc12 [Example 1, 4-amino-N-(1-((4-chlorophenyl)amino)-6-methylisoquinolin-5-yl)thieno[3,2-d]pyrimidine-7-carboxamide]

IC50 [1]: 0.024 µM
IC50 (B-RAF normal type): 0.015 µM
IC50 (B-RAF^V600E): 0.032 µM
IC50 (RAF1 Y340D Y341D (C-RAF)): 0.005 µM
IC50 [2]: 0.052 µM
Compound: COc1ccc(Nc2nccc3c(NC(=O)c4csc5c(N)ncnc45)c(C)ccc23)cc1 [Example 16, 4-amino-N-(1-((4-methoxyphenyl)amino)-6-methylisoquinolin-5-yl)thieno[3,2-d]pyrimidine-7-carboxamide]

IC50 [1]: 0.03 µM
IC50 (DDR2): 0.01 µM
IC50 (DDR1): 0.005 µM
IC50 (FMS): 0.004 µM
IC50 (B-RAF normal type): 0.012 µM
IC50 (B-RAF^V600E): 0.005 µM
IC50 (RAF1 Y340D Y341D (C-RAF)): 0.007 µM
IC50 [2]: 0.06 µM
Compound: CC(=O)c1ccc(Nc2nccc3c(NC(=O)c4csc5c(N)ncnc45)c(C)ccc23)cc1 [Example 83, N-(1-((4-acetylphenyl)amino)-6-methylisoquinolin-5-yl)-4-aminothieno[3,2-d]pyrimidine-7-carboxamide]

IC50 [1]: 0.038 µM
IC50 (DDR2): 0.044 µM
IC50 (DDR1): 0.023 µM
IC50 (FMS): 0.01 µM
IC50 (B-RAF normal type): 0.056 µM
IC50 (B-RAF^V600E): 0.007 µM
IC50 (RAF1 Y340D Y341D (C-RAF)): 0.005 µM
IC50 [2]: 0.076 µM
Compound: Cc1ccc2c(Nc3cccc(Cl)c3F)nccc2c1NC(=O)c1csc2c(N)ncnc12 [Example 116, 4-amino-N-(1-((3-chloro-2-fluorophenyl)amino)-6-methylisoquinolin-5-yl)thieno[3,2-d]pyrimidine-7-carboxamide]

The remaining lines, values behind:

Compound: CCCS(=O)(=O)Nc1ccc(F)c(C(=O)c2c[nH]c3ncc(-c4ccc(Cl)cc4)cc23)c1F [Control, Vemurafenib, reference compound]
IC50 [1]: > 1 µM
IC50 (DDR2): > 1 µM
IC50 (DDR1): > 1 µM
IC50 (FMS): > 1 µM
IC50 [2]: > 1 µM

Compound: Cc1ccc2c(Nc3cccc(Cl)c3)nccc2c1NC(=O)c1csc2c(N)ncnc12 [Example 38, 4-amino-N-(1-((3-chlorophenyl)amino)-6-methylisoquinolin-5-yl)thieno[3,2-d]pyrimidine-7-carboxamide]
IC50 [1]: 0.041 µM
IC50 [2]: 0.097 µM

Compound: Cc1ccc2c(Nc3ccc(OC(F)F)cc3)nccc2c1NC(=O)c1csc2c(N)ncnc12 [Example 50, 4-amino-N-(1-((4-(difluoromethoxy)phenyl)amino)-6-methylisoquinolin-5-yl)thieno[3,2-d]pyrimidine-7-carboxamide]
IC50 [1]: 0.044 µM
IC50 (B-RAF normal type): 0.128 µM
IC50 (B-RAF^V600E): 0.026 µM
IC50 (RAF1 Y340D Y341D (C-RAF)): 0.032 µM
IC50 [2]: 0.163 µM

Compound: Cc1ccc2c(Nc3ccc(Cl)c(CN(C)C)c3)nccc2c1NC(=O)c1csc2c(N)ncnc12 [Example 59, 4-amino-N-(1-((4-chloro-3-((dimethylamino)methyl)phenyl)amino)-6-methylisoquinolin-5-yl)thieno[3,2-d]pyrimidine-7-carboxamide]
IC50 [1]: 0.047 µM
IC50 (B-RAF normal type): 0.042 µM
IC50 (B-RAF^V600E): 0.007 µM
IC50 (RAF1 Y340D Y341D (C-RAF)): 0.006 µM
IC50 [2]: 0.236 µM

Compound: Cc1ccc2c(Nc3ccc(F)c(Cl)c3)nccc2c1NC(=O)c1csc2c(N)ncnc12 [Example 105, 4-amino-N-(1-((3-chloro-4-fluorophenyl)amino)-6-methylisoquinolin-5-yl)thieno[3,2-d]pyrimidine-7-carboxamide]
IC50 [1]: 0.09 µM
IC50 (DDR2): 0.181 µM
IC50 (DDR1): 0.071 µM
IC50 (FMS): 0.05 µM
IC50 (B-RAF normal type): 0.179 µM
IC50 (B-RAF^V600E): 0.031 µM
IC50 (RAF1 Y340D Y341D (C-RAF)): 0.015 µM
IC50 [2]: 0.21 µM
